The test system of this assay is β-catenin-TCF-mediated reporter transcription activity in Colo 205 cells. In words: Colo 205 reporter assay (TCF/LEF luciferase). Format: cell-based. Conditions: Homo sapiens, COLO 205, 5 h, Colo 205 TCF/LEF luciferase reporter, five hours after addition of compound; read-out: TCF reporter Colo205 IC50. In short, it runs like this:
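Luciferase signal from a TCF/LEF-driven reporter, stably integrated in Colo 205 colon cancer cells, was measured 5 h after compound addition.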
(In general: In a reporter assay the amount or activity of a reporter protein is the signal.)

A value given as a limit tells only on which side of the number the result lay.

By IC50 is commonly meant the concentration needed to halve the response being measured.

For `Cc1nc(NCc2cnn(Cc3ccc(F)nc3)c2)nc2c1N(C)C(=O)[C@H](C)N2C` [Compound 82, (7S)-2-(((1-((6-fluoropyridin-3-yl)methyl)-1H-pyrazol-4-yl)methyl)amino)-4,5,7,8-tetramethyl-7,8-dihydropteridin-6(5H)-one], the 50% inhibitory concentration (IC50) lay within 300 to 1000 nM. Take `COc1cc(F)ccc1Cn1cc(CNc2nc(C)c3c(n2)N(C)[C@@H](C)C(=O)N3C)cn1` [Compound 84, (7S)-2-(((1-(4-fluoro-2-methoxybenzyl)-1H-pyrazol-4-yl)methyl)amino)-4,5,7,8-tetramethyl-7,8-dihydropteridin-6(5H)-one]: the IC50 is less than 300 nM. In the case of `Cc1nc(NCc2cnn(Cc3ccc(F)cc3O)c2)nc2c1NC(=O)[C@H](C)N2C` [Compound 87, (7S)-2-(((1-(4-fluoro-2-hydroxybenzyl)-1H-pyrazol-4-yl)methyl)amino)-4,7,8-trimethyl-7,8-dihydropteridin-6(5H)-one] it was less than 300 nM; in that of `COc1c(F)ccc(Cn2cc(CNc3nc(C)c4c(n3)N(C)[C@@H](C)C(=O)N4)cn2)c1F` [Compound 88, (7S)-2-(((1-(2,4-difluoro-3-methoxybenzyl)-1H-pyrazol-4-yl)methyl)amino)-4,7,8-trimethyl-7,8-dihydropteridin-6(5H)-one], less than 300 nM. In the case of `Cc1nc(NCc2cnn(C[C@@H](C)c3ccccc3)c2)nc2c1NC(=O)[C@H](C)N2C` [Compound 89, (7S)-4,7,8-trimethyl-2-(((1-((S)-2-phenylpropyl)-1H-pyrazol-4-yl)methyl)amino)-7,8-dihydropteridin-6(5H)-one] it was less than 300 nM; in that of `Cc1nc(NCc2cnn(C[C@H](C)c3ccccc3)c2)nc2c1NC(=O)[C@H](C)N2C` [Compound 90, (7S)-4,7,8-trimethyl-2-(((1-((R)-2-phenylpropyl)-1H-pyrazol-4-yl)methyl)amino)-7,8-dihydropteridin-6(5H)-one], less than 300 nM; in that of `Cc1nc(NCc2cnn(CC(=O)c3ccc(F)cc3)c2)nc2c1NC(=O)[C@H](C)N2C` [Compound 91, (7S)-2-(((1-(2-(4-fluorophenyl)-2-oxoethyl)-1H-pyrazol-4-yl)methyl)amino)-4,7,8-trimethyl-7,8-dihydropteridin-6(5H)-one], less than 300 nM. The result for `Cc1nc(NCc2cnn(CC(C)(C)c3ccc(F)cc3)c2)nc2c1NC(=O)[C@H](C)N2C` [Compound 92, (7S)-2-(((1-(2-(4-fluorophenyl)-2-methylpropyl)-1H-pyrazol-4-yl)methyl)amino)-4,7,8-trimethyl-7,8-dihydropteridin-6(5H)-one] reads less than 300 nM; that for `Cc1nc(NCc2cnn(C[C@@H](C)c3ccc(F)cc3)c2)nc2c1NC(=O)[C@H](C)N2C` [Compound 95, (7S)-2-(((1-((S)-2-(4-fluorophenyl)propyl)-1H-pyrazol-4-yl)methyl)amino)-4,7,8-trimethyl-7,8-dihydropteridin-6(5H)-one], less than 300 nM. Consider `Cc1nc(NCc2cnn(-c3cccc(C(F)(F)F)c3)c2)nc2c1NC(=O)[C@H](C)N2C` [Compound 97, (7S)-4,7,8-trimethyl-2-(((1-(3-(trifluoromethyl)phenyl)-1H-pyrazol-4-yl)methyl)amino)-7,8-dihydropteridin-6(5H)-one], for which the half-inhibitory concentration (IC50) is less than 300 nM.

As to `Cc1nc(NCc2cnn(-c3ccc(F)cc3F)c2)nc2c1NC(=O)[C@H](C)N2C` [Compound 98, (7S)-2-(((1-(2,4-difluorophenyl)-1H-pyrazol-4-yl)methyl)amino)-4,7,8-trimethyl-7,8-dihydropteridin-6(5H)-one], the IC50 was in the range of 1000 to 5000 nM. As for `Cc1nc(NCc2cnn(C3CCNCC3)c2)nc2c1NC(=O)[C@H](C)N2C` [Compound 99, (7S)-4,7,8-Trimethyl-2-(((1-(piperidin-4-yl)-1H-pyrazol-4-yl)methyl)amino)-7,8-dihydropteridin-6(5H)-one], the IC50 was not below 5000 nM. The result for `Cc1nc(NCc2cnn([C@H](C)Cc3ccccc3)c2)nc2c1NC(=O)[C@H](C)N2C` [Compound 101, (7S)-4,7,8-trimethyl-2-(((1-((R)—1-phenylpropan-2-yl)-1H-pyrazol-4-yl)methyl)amino)-7,8-dihydropteridin-6(5H)-one] reads less than 300 nM; that for `Cc1nc(NCc2cnn([C@@H](C)Cc3ccccc3)c2)nc2c1NC(=O)[C@H](C)N2C` [Compound 102, (7S)-4,7,8-trimethyl-2-(((1-((S)-1-phenylpropan-2-yl)-1H-pyrazol-4-yl)methyl)amino)-7,8-dihydropteridin-6(5H)-one], 1000 to 5000 nM; that for `Cc1nc(NCc2cnn(CCCc3ccc(F)cc3)c2)nc2c1NC(=O)[C@H](C)N2C` [Compound 104, (7S)-2-(((1-(3-(4-fluorophenyl)propyl)-1H-pyrazol-4-yl)methyl)amino)-4,7,8-trimethyl-7,8-dihydropteridin-6(5H)-one], less than 300 nM. The result for `Cc1nc(NCc2cnn(CCc3ccc(F)c(F)c3)c2)nc2c1NC(=O)[C@H](C)N2C` [Compound 105, (7S)-2-(((1-(3,4-difluorophenethyl)-1H-pyrazol-4-yl)methyl)amino)-4,7,8-trimethyl-7,8-dihydropteridin-6(5H)-one] reads less than 300 nM; that for `Cc1nc(NCc2cnn(CCc3ccc(F)cc3F)c2)nc2c1NC(=O)[C@H](C)N2C` [Compound 106, (7S)-2-(((1-(2,4-difluorophenethyl)-1H-pyrazol-4-yl)methyl)amino)-4,7,8-trimethyl-7,8-dihydropteridin-6(5H)-one], less than 300 nM.

On to `Cc1nc(NCc2cnn(CCc3cc(F)cc(F)c3)c2)nc2c1NC(=O)[C@H](C)N2C` [Compound 107, (7S)-2-(((1-(3,5-difluorophenethyl)-1H-pyrazol-4-yl)methyl)amino)-4,7,8-trimethyl-7,8-dihydropteridin-6(5H)-one], for which the half-inhibitory concentration (IC50) was less than 300 nM. On to `CCOc1ccc(CCn2cc(CNc3nc(C)c4c(n3)N(C)[C@@H](C)C(=O)N4)cn2)cc1` [Compound 108, (7S)-2-(((1-(4-ethoxyphenethyl)-1H-pyrazol-4-yl)methyl)amino)-4,7,8-trimethyl-7,8-dihydropteridin-6(5H)-one], for which the half-inhibitory concentration (IC50) was 300 to 1000 nM. In the case of `C[C@H]1C(=O)Nc2cnc(NCc3cnn(CCOc4ccc(F)cc4)c3)nc2N1C` [Compound 109, (7S)-2-(((1-(2-(4-fluorophenoxy)ethyl)-1H-pyrazol-4-yl)methyl)amino)-7,8-dimethyl-7,8-dihydropteridin-6(5H)-one] it was 1000 to 5000 nM; in that of `C[C@H]1C(=O)Nc2cnc(NCc3cnn(CCCc4ccc(F)cc4)c3)nc2N1C` [Compound 110, (7S)-2-(((1-(3-(4-fluorophenyl)propyl)-1H-pyrazol-4-yl)methyl)amino)-7,8-dimethyl-7,8-dihydropteridin-6(5H)-one], 300 to 1000 nM. On to `C[C@H]1C(=O)Nc2cnc(NCc3cnn(CCc4ccc(F)c(F)c4)c3)nc2N1C` [Compound 111, (7S)-2-(((1-(3,4-difluorophenethyl)-1H-pyrazol-4-yl)methyl)amino)-7,8-dimethyl-7,8-dihydropteridin-6(5H)-one], for which the IC50 is 300 to 1000 nM. The result for `Cc1nc(NCc2cnn(C3CCc4ccc(F)cc43)c2)nc2c1NC(=O)[C@H](C)N2C` (stereo partly drawn) [Compound 117, (7S)-2-(((1-(6-fluoro-2,3-dihydro-1H-inden-1-yl)-1H-pyrazol-4-yl)methyl)amino)-4,7,8-trimethyl-7,8-dihydropteridin-6(5H)-one] reads less than 300 nM; that for `Cc1nc(NCc2cnn(C3CCOCC3)c2)nc2c1NC(=O)[C@H](C)N2C` [Compound 118, (7S)-4,7,8-trimethyl-2-(((1-(tetrahydro-2H-pyran-4-yl)-1H-pyrazol-4-yl)methyl)amino)-7,8-dihydropteridin-6(5H)-one], not below 5000 nM; that for `C[C@H]1C(=O)Nc2cnc(NCc3cnn(CCc4ccc(F)cc4F)c3)nc2N1C` [Compound 119, (7S)-2-(((1-(2,4-difluorophenethyl)-1H-pyrazol-4-yl)methyl)amino)-7,8-dimethyl-7,8-dihydropteridin-6(5H)-one], 1000 to 5000 nM. As for `C[C@H]1C(=O)Nc2cnc(NCc3cnn(CCc4cc(F)cc(F)c4)c3)nc2N1C` [Compound 120, (7S)-2-(((1-(3,5-difluorophenethyl)-1H-pyrazol-4-yl)methyl)amino)-7,8-dimethyl-7,8-dihydropteridin-6(5H)-one], the concentration for half-maximal inhibition (IC50) fell in the range of 300 to 1000 nM. Take `Cc1nc(NCc2cnn(CCc3cc(F)c(F)c(F)c3)c2)nc2c1NC(=O)[C@H](C)N2C` [Compound 123, (7S)-4,7,8-trimethyl-2-(((1-(3,4,5-trifluorophenethyl)-1H-pyrazol-4-yl)methyl)amino)-7,8-dihydropteridin-6(5H)-one]: the concentration for half-maximal inhibition (IC50) was less than 300 nM. `Cc1nc(NCc2cnn(C3CCN(C(=O)c4cc(F)c(F)c(F)c4)CC3)c2)nc2c1NC(=O)[C@H](C)N2C` [Compound 124, (7S)-4,7,8-Trimethyl-2-(((1-(1-(3,4,5-trifluorobenzoyl)piperidin-4-yl)-1H-pyrazol-4-yl)methyl)amino)-7,8-dihydropteridin-6(5H)-one]: the IC50 lay in the range of 300 to 1000 nM. `Cc1nc(NCc2ccc(Nc3cnn(CC(F)(F)F)c3)nc2)nc2c1NC(=O)[C@H](C)N2C` [Compound 126, (7S)-4,7,8-trimethyl-2-(((6-((1-(2,2,2-trifluoroethyl)-1H-pyrazol-4-yl)amino)pyridin-3-yl)methyl)amino)-7,8-dihydropteridin-6(5H)-one]: the concentration for half-maximal inhibition (IC50) lay within 1000 to 5000 nM. The result for `Cc1nc(NCc2cnn([C@@H]3CCN(C4CCC(F)(F)CC4)C3)c2)nc2c1NC(=O)[C@H](C)N2C` [Compound 127, (7S)-2-(((1-((R)-1-(4,4-difluorocyclohexyl)pyrrolidin-3-yl)-1H-pyrazol-4-yl)methyl)amino)-4,7,8-trimethyl-7,8-dihydropteridin-6(5H)-one] reads 300 to 1000 nM; that for `Cc1nc(NCc2cnn(Cc3ccc(OC(C)C)nc3)c2)nc2c1N(C)C(=O)[C@H](C)N2C` [Compound 129, (7S)-2-(((1-((6-isopropoxypyridin-3-yl)methyl)-1H-pyrazol-4-yl)methyl)amino)-4,5,7,8-tetramethyl-7,8-dihydropteridin-6(5H)-one], 300 to 1000 nM.

Values taken from patent US20230312587A1, “PTERIDINONE COMPOUNDS AND USES THEREOF” (Vertex Pharmaceutical Incorporated, priority 2018, published 2023).
